Test results reported in ChEMBL document CHEMBL6096653, “α-GalCer sp2-iminoglycolipid analogs as CD1d-dependent iNKT modulators: Evaluation of their immunotherapeutic potential in murine models of asthma and autoimmune hepatitis” (Eur J Med Chem, 2025).
Activity calls are given as the source filed them. The calls are words filed in the database; no cut-off is given here.

What was measured:
[1] = tested on: Mus musculus; test: Anti-asthmatic activity in alpha-Galcer-induced female BALB/c mouse model assessed as reduction in IL-6 mRNA level in lung at 20 microg/g ip measured after 24 hrs by RT-PCR analysis; format: functional, organism-based; conditions: dose 20.0 µg/g
[2] = tested on: Splenocyte; test: Immunostimulatory activity in BALB/c mouse Splenocyte assessed as induction of IFNgamma level at 25 uM incubated for 48 hrs by ELISA analysis; format: functional, cell-based
[3] = tested on: Splenocyte; test: Immunostimulatory activity in BALB/c mouse Splenocyte assessed as induction of IL-4 level at 25 uM incubated for 48 hrs by ELISA analysis; format: functional, cell-based
[4] = tested on: Splenocyte; test: Immunostimulatory activity in Cd1d knockout BALB/c mouse Splenocyte assessed as effect on of IFNgamma level at 10 to 25 uM incubated for 48 hrs by ELISA analysis; format: functional, cell-based; conditions: dose 10-25 µM
[5] = tested on: Splenocyte; test: Immunostimulatory activity in Cd1d knockout BALB/c mouse Splenocyte assessed as effect on of IL-4 level at 10 to 25 uM incubated for 48 hrs by ELISA analysis; format: functional, cell-based; conditions: dose 10-25 µM
[6] = tested on: Splenocyte; test: Immunostimulatory activity in BALB/c mouse Splenocyte assessed as induction of IFNgamma level at 10 to 25 uM incubated for 48 hrs by ELISA analysis; format: functional, cell-based; conditions: dose 10-25 µM
[7] = tested on: Splenocyte; test: Immunostimulatory activity in BALB/c mouse Splenocyte assessed as induction of IL-4 level at 10 to 25 uM incubated for 48 hrs by ELISA analysis; format: functional, cell-based; conditions: dose 10-25 µM
[8] = tested on: iNKT hybridoma DN3A4-1.2 cell; test: Immunostimulatory activity in mouse iNKT hybridoma DN3A4-1.2 cell assessed as induction of IL-2 secretion at 10 to 25 uM incubated for 48 hrs in presence of alpha-GalCer by ELISA analysis; format: functional, cell-based; conditions: dose 10-25 µM
[9] = tested on: iNKT hybridoma DN3A4-1.2 cell; test: Immunostimulatory activity in mouse iNKT hybridoma DN3A4-1.2 cell assessed as induction of IL-2 level at 10 to 25 uM incubated for 48 hrs by ELISA analysis; format: functional, cell-based; conditions: dose 10-25 µM
[10] = tested on: Mus musculus; test: Immunostimulatory activity in Th1-biased (OT-1) C57BL/6 mouse model transplanted with mouse Splenocyte assessed as increase in OVA-specific CD8+ T cells proliferation at 1 to 400 ug, ip pretreated with compound and ovalbumin for 2 hrs and measured after 2 days by flow cytometry analysis; format: functional, organism-based; conditions: dose 1-400 µg, time 50.0 hrs
[11] = tested on: Mus musculus; test: Immunostimulatory activity in Th1-biased (OT-1) C57BL/6 mouse model transplanted with mouse Splenocyte assessed as increase in OVA-specific CD8+ T cells proliferation at 1 to 400 ug, ip pretreated with compound and ovalbumin for 2 hrs and measured after 3 days by flow cytometry analysis; format: functional, organism-based; conditions: dose 1-400 µg, time 74.0 hrs
[12] = tested on: Mus musculus; test: Immunostimulatory activity in ip dosed Th1-biased (OT-1) C57BL/6 mouse model transplanted with mouse Splenocyte assessed as increase in OVA-specific CD8+ T cells proliferation pretreated with compound and ovalbumin for 2 hrs and measured after 2 days by flow cytometry analysis; format: functional, organism-based; conditions: dose 400.0 µg, time 50.0 hrs
[13] = tested on: Mus musculus; test: Immunostimulatory activity in ip dosed Th1-biased (OT-1) C57BL/6 mouse model transplanted with mouse Splenocyte assessed as increase in OVA-specific CD8+ T cells proliferation pretreated with compound and ovalbumin for 2 hrs and measured after 3 days by flow cytometry analysis; format: functional, organism-based; conditions: dose 400.0 µg
[14] = Toxicity in C57BL/6J mouse assessed as liver damage at 20 microg/g, ip measured after 18 hrs by H and E staining based analysis; format: organism-based; conditions: in vivo, dose 20 µg/g
[15] = Toxicity in C57BL/6J mouse assessed as decrease in AST level in serum at 20 microg/g, ip measured after 18 hrs; format: organism-based; conditions: in vivo, dose 20 µg/g
[16] = Toxicity in C57BL/6J mouse assessed as decrease in ALT level in serum at 20 microg/g, ip measured after 18 hrs; format: organism-based; conditions: in vivo, dose 20 µg/g
[17] = tested on: Mus musculus; test: Anti-inflammatory activity in ConA-induced autoimmune hepatitis C57BL/6 mouse model assessed as reduction in IL-6 level in serum at 20 microg/g, ip pretreated with ConA for 18 hrs followed by compound addition and measured after 18 hrs; format: functional, organism-based; conditions: dose 20.0 µg/g
[18] = tested on: Mus musculus; test: Anti-inflammatory activity in ConA-induced autoimmune hepatitis C57BL/6 mouse model assessed as reduction in TNF-alpha level in serum at 20 microg/g, ip pretreated with ConA for 18 hrs followed by compound addition and measured after 18 hrs; format: functional, organism-based; conditions: dose 20.0 µg/g
[19] = tested on: Mus musculus; test: Anti-asthmatic activity in alpha-Galcer-induced female BALB/c mouse model assessed as inhibition of airway hyperreactivity at 20 microg/g ip measured after 24 hrs; format: functional, organism-based; conditions: dose 20.0 µg/g
[20] = tested on: Mus musculus; test: Anti-asthmatic activity in alpha-Galcer-induced female BALB/c mouse model assessed as reduction in TNF-alpha mRNA level in lung at 20 microg/g ip measured after 24 hrs by RT-PCR analysis; format: functional, organism-based; conditions: dose 20.0 µg/g
[21] = tested on: Mus musculus; test: Anti-asthmatic activity in alpha-Galcer-induced female BALB/c mouse model assessed as reduction in Muc5ac mRNA level in lung at 20 microg/g ip measured after 24 hrs by RT-PCR analysis; format: functional, organism-based; conditions: dose 20.0 µg/g
[22] = tested on: Mus musculus; test: Anti-asthmatic activity in alpha-Galcer-induced female BALB/c mouse model assessed as reduction in Gob5 mRNA level in lung at 20 microg/g ip measured after 24 hrs by RT-PCR analysis; format: functional, organism-based; conditions: dose 20.0 µg/g
[23] = tested on: Splenocyte; test: Cytotoxicity against mouse Splenocyte assessed as cell viability at 25 uM by AlamarBlue assay; format: toxicity, cell-based

| Compound | Activity [2] | Activity [3] | Activity [4] | Activity [5] | Activity [7] | Activity [8] | Activity [9] | also measured |
| --- | --- | --- | --- | --- | --- | --- | --- | --- |
| CCCCCCCCCCCCCC[C@@H](O)[C@@H](O)[C@H](CO[C@@H]1[C@H](O)[C@@H](O)[C@@H](O)[C@H]2COC(=O)N21)n1cc(CCCCCCCC)nn1 | Active | Active | inactive | inactive | Active | Active | Active | Activity [1]: Active; Activity [6]: Active; Activity [10]: Active; Activity [11]: Active; Activity [12]: Dose-dependent-effect; Activity [13]: Dose-dependent-effect; Activity [14]: Non-toxic; Activity [15]: Non-toxic; Activity [16]: Non-toxic; Activity [17]: Active; Activity [18]: Active; Activity [19]: Active; Activity [20]: Active; Activity [21]: Active; Activity [22]: Active |
| CCCCCCCCCCCCCC[C@@H](O)[C@@H](O)[C@H](CO[C@@H]1[C@H](O)[C@@H](O)[C@@H](O)[C@H]2COC(=O)N21)n1cc(CCCC)nn1 | inactive | – | – | – | – | – | – | – |
| CCCCCCCCCCCCCCCCCCCCCCCCCC(=O)N[C@@H](CO[C@@H]1[C@H](O)[C@@H](O)[C@@H](O)[C@H]2COC(=O)N21)[C@H](O)[C@H](O)CCCCCCCCCCCCCC | inactive | inactive | – | – | – | Active | inactive | – |
| CCCCCCCCCCCCCC[C@@H](O)[C@@H](O)[C@H](CO[C@@H]1[C@H](O)[C@@H](O)[C@@H](O)[C@H]2COC(=O)N21)n1cc(CCCCCCCCCCCC)nn1 | inactive | Active | inactive | inactive | Active | – | – | – |
| CCCCCCCCCCCCCCCCCCCCCCCCCC(=O)N[C@@H](CO[C@@H]1[C@H](O)[C@@H](O)[C@H](O)[C@H]2COC(=O)N21)[C@H](O)[C@H](O)CCCCCCCCCCCCCC | inactive | inactive | – | – | – | Active | inactive | – |
| CCCCCCCCCCCCCC[C@@H](O)[C@@H](O)[C@H](CO[C@@H]1[C@H](O)[C@@H](O)[C@@H](O)[C@H]2COC(=O)N21)n1cc(CCCCCC)nn1 | inactive | Active | inactive | inactive | Active | – | – | Activity [23]: Toxic |
